Measurements published in ChEMBL document CHEMBL1201862, “PubChem BioAssay data set” (2004).
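Following 48 hours of exposure in 96-well plates, responses at five concentrations were used to interpolate endpoints linearly. GI50 = concentration required for 50% inhibition of growth.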 The source made the active and inactive calls. Cut-off read from the data, not from the text of the source: active = GI50 up to about 1.1 µM and inactive = higher.

Columns and labels:
Experiment in all cases: inhibition of tumour cell growth, NCI panel, 48 h
Hs-578T = system: Hs-578T
RPMI-8226 = system: RPMI-8226
SK-OV-3 = system: SK-OV-3
786-0 = system: 786-0
BT-549 = system: BT-549
CAKI-1 = system: CAKI-1
TK-10 = system: TK-10
SF-539 = system: SF-539
MDA-N = system: MDA-N
SNB-75 = system: SNB-75
NCI-H226 = system: NCI-H226
NCI-H460 = system: NCI-H460
A549 = system: A549
RXF 393 = system: RXF 393
NCI-H522 = system: NCI-H522
SN12C = system: SN12C
HL-60 = system: HL-60
NCI/ADR-RES = system: NCI/ADR-RES
MCF7 = system: MCF7
UACC-62 = system: UACC-62
HOP-62 = system: HOP-62
MDA-MB-435 = system: MDA-MB-435
Malme-3M = system: Malme-3M
OVCAR-4 = system: OVCAR-4
NCI-H23 = system: NCI-H23
SR = system: SR
SK-MEL-2 = system: SK-MEL-2
SNB-19 = system: SNB-19
MOLT-4 = system: MOLT-4
HOP-92 = system: HOP-92
OVCAR-8 = system: OVCAR-8
HCT-15 = system: HCT-15
OVCAR-5 = system: OVCAR-5
ACHN = system: ACHN
T47D = system: T47D
OVCAR-3 = system: OVCAR-3
SW-620 = system: SW-620
HCC 2998 = system: HCC 2998
EKVX = system: EKVX
KM12 = system: KM12
IGROV-1 = system: IGROV-1
CCRF-CEM = system: CCRF-CEM
COLO 205 = system: COLO 205
MDA-MB-231 = system: MDA-MB-231
M14 = system: M14
PC-3 = system: PC-3
SF-295 = system: SF-295
DU-145 = system: DU-145
HT-29 = system: HT-29
U-251 = system: U-251
UACC-257 = system: UACC-257
UO-31 = system: UO-31
HCT-116 = system: HCT-116
LOX IMVI = system: LOX IMVI
K562 = system: K562
SK-MEL-5 = system: SK-MEL-5
SF-268 = system: SF-268
SK-MEL-28 = system: SK-MEL-28
A498 = system: A498

With `COc1cc(O)c2c(=O)c(OC)c(-c3ccc(OC)c(OC)c3)oc2c1.[Zn+2]` the GI50 (Hs-578T) was 2.67 µM (inactive), the GI50 (RPMI-8226) was 57.9 µM (inactive) and the GI50 (SK-OV-3) was 5.12 µM (inactive). For the same compound, the GI50 (786-0) was 10.4 µM (inactive), the GI50 (BT-549) was 17.8 µM (inactive) and the GI50 (CAKI-1) was 11.2 µM (inactive). For the same compound, the GI50 (TK-10) was 66.1 µM (inactive), the GI50 (SF-539) was 20.8 µM (inactive) and the GI50 (MDA-N) was > 100 µM (inactive). The GI50 (SNB-75) was 1.75 µM (inactive), the GI50 (NCI-H226) was 54.8 µM (inactive) and the GI50 (NCI-H460) was 17.1 µM (inactive). For the same compound, the GI50 (A549) was 53.2 µM (inactive), the GI50 (RXF 393) was 5.81 µM (inactive) and the GI50 (NCI-H522) was 4.38 µM (inactive). The GI50 (SN12C) was 61.2 µM (inactive) and the GI50 (HL-60) was > 100 µM (inactive).

`Oc1nncc2[nH]c(-c3ccccc3)cc12` was tested, and the GI50 (NCI/ADR-RES) was 25.2 µM (inactive), the GI50 (MCF7) was 24.4 µM (inactive) and the GI50 (RPMI-8226) was 56.4 µM (inactive). The GI50 (SK-OV-3) was 63.7 µM (inactive), the GI50 (UACC-62) was 33.9 µM (inactive) and the GI50 (HOP-62) was 61.5 µM (inactive). The GI50 (MDA-MB-435) was 28.2 µM (inactive), the GI50 (Malme-3M) was 56.9 µM (inactive) and the GI50 (786-0) was 75 µM (inactive). The GI50 (BT-549) was 37.8 µM (inactive), the GI50 (OVCAR-4) was 55.1 µM (inactive) and the GI50 (CAKI-1) was 45.8 µM (inactive). The GI50 (NCI-H23) was 48.9 µM (inactive), the GI50 (SR) was 46.5 µM (inactive) and the GI50 (SK-MEL-2) was 29.6 µM (inactive). For the same compound, the GI50 (TK-10) was 39.4 µM (inactive), the GI50 (SNB-19) was > 100 µM (inactive) and the GI50 (MOLT-4) was 17 µM (inactive). For the same compound, the GI50 (MDA-N) was 38.9 µM (inactive), the GI50 (HOP-92) was > 100 µM (inactive) and the GI50 (SNB-75) was 22.9 µM (inactive). For the same compound, the GI50 (NCI-H226) was 86.1 µM (inactive), the GI50 (NCI-H460) was 45.5 µM (inactive) and the GI50 (OVCAR-8) was 78.7 µM (inactive). For the same compound, the GI50 (HCT-15) was 45.8 µM, the GI50 (OVCAR-5) was 95.1 µM (inactive) and the GI50 (A549) was 49.3 µM (inactive). The GI50 (ACHN) was 46.3 µM (inactive), the GI50 (T47D) was 23.7 µM (inactive) and the GI50 (OVCAR-3) was 36.2 µM (inactive). The GI50 (SW-620) was 64.4 µM (inactive), the GI50 (HCC 2998) was 36 µM (inactive) and the GI50 (EKVX) was 21.9 µM (inactive). For the same compound, the GI50 (KM12) was 35.1 µM (inactive), the GI50 (IGROV-1) was > 100 µM (inactive) and the GI50 (RXF 393) was 27 µM (inactive). The GI50 (CCRF-CEM) was 36.7 µM (inactive), the GI50 (COLO 205) was 43.1 µM (inactive) and the GI50 (MDA-MB-231) was 34 µM (inactive). For the same compound, the GI50 (M14) was 51.8 µM (inactive), the GI50 (SN12C) was 54.1 µM (inactive) and the GI50 (PC-3) was 30.1 µM (inactive). The GI50 (SF-295) was 26.2 µM (inactive), the GI50 (DU-145) was 79.8 µM (inactive) and the GI50 (HT-29) was 36.4 µM (inactive). For the same compound, the GI50 (U-251) was 52 µM (inactive), the GI50 (UACC-257) was 30.5 µM (inactive) and the GI50 (UO-31) was 67.1 µM (inactive). The GI50 (HCT-116) was 57.7 µM (inactive), the GI50 (LOX IMVI) was 66.1 µM (inactive) and the GI50 (HL-60) was 71.9 µM (inactive). The GI50 (K562) was 44.1 µM (inactive), the GI50 (SK-MEL-5) was 23.3 µM (inactive) and the GI50 (SF-268) was 39.4 µM (inactive).

`O=C(c1ccc2ccccc2c1)C1(I)S(=O)(=O)OCCOS1(=O)=O` was tested, and the GI50 (NCI/ADR-RES) was > 100 µM (inactive), the GI50 (MCF7) was > 100 µM (inactive) and the GI50 (RPMI-8226) was > 100 µM (inactive). The GI50 (HOP-62) was > 100 µM (inactive), the GI50 (MDA-MB-435) was > 100 µM (inactive) and the GI50 (Malme-3M) was > 100 µM (inactive). For the same compound, the GI50 (786-0) was > 100 µM (inactive), the GI50 (BT-549) was > 100 µM (inactive) and the GI50 (OVCAR-4) was > 100 µM (inactive). For the same compound, the GI50 (CAKI-1) was > 100 µM (inactive), the GI50 (NCI-H23) was > 100 µM (inactive) and the GI50 (SR) was > 100 µM (inactive). The GI50 (SK-MEL-2) was > 100 µM (inactive), the GI50 (TK-10) was > 100 µM (inactive) and the GI50 (SNB-19) was > 100 µM (inactive). For the same compound, the GI50 (MOLT-4) was > 100 µM (inactive), the GI50 (MDA-N) was > 100 µM (inactive) and the GI50 (NCI-H460) was > 100 µM (inactive). The GI50 (OVCAR-8) was > 100 µM (inactive), the GI50 (HCT-15) was over 100 µM and the GI50 (OVCAR-5) was > 100 µM (inactive). For the same compound, the GI50 (A549) was > 100 µM (inactive), the GI50 (ACHN) was > 100 µM (inactive) and the GI50 (OVCAR-3) was > 100 µM (inactive). The GI50 (HCC 2998) was > 100 µM (inactive), the GI50 (EKVX) was > 100 µM (inactive) and the GI50 (KM12) was > 100 µM (inactive). For the same compound, the GI50 (CCRF-CEM) was > 100 µM (inactive), the GI50 (COLO 205) was > 100 µM (inactive) and the GI50 (MDA-MB-231) was > 100 µM (inactive). For the same compound, the GI50 (M14) was > 100 µM (inactive), the GI50 (SN12C) was > 100 µM (inactive) and the GI50 (PC-3) was > 100 µM (inactive). For the same compound, the GI50 (SF-295) was 0.0102 µM (active), the GI50 (DU-145) was > 100 µM (inactive) and the GI50 (HT-29) was > 100 µM (inactive). The GI50 (U-251) was > 100 µM (inactive), the GI50 (UO-31) was > 100 µM (inactive) and the GI50 (HCT-116) was > 100 µM (inactive). For the same compound, the GI50 (SK-MEL-28) was > 100 µM (inactive), the GI50 (HL-60) was > 100 µM (inactive) and the GI50 (K562) was > 100 µM (inactive). For the same compound, the GI50 (SK-MEL-5) was > 100 µM (inactive).

`CC(=O)/C(=C/NC(=S)c1ccncc1)C(=O)Nc1ccccc1C` was tested, and the GI50 (NCI/ADR-RES) was > 100 µM (inactive), the GI50 (MCF7) was > 100 µM (inactive) and the GI50 (SK-OV-3) was > 100 µM (inactive). For the same compound, the GI50 (UACC-62) was > 100 µM (inactive), the GI50 (HOP-62) was > 100 µM (inactive) and the GI50 (MDA-MB-435) was > 100 µM (inactive). For the same compound, the GI50 (786-0) was > 100 µM (inactive), the GI50 (BT-549) was > 100 µM (inactive) and the GI50 (OVCAR-4) was > 100 µM (inactive). The GI50 (CAKI-1) was > 100 µM (inactive), the GI50 (NCI-H23) was > 100 µM (inactive) and the GI50 (SK-MEL-2) was > 100 µM (inactive). The GI50 (TK-10) was > 100 µM (inactive), the GI50 (SF-539) was > 100 µM (inactive) and the GI50 (SNB-19) was > 100 µM (inactive). For the same compound, the GI50 (MDA-N) was > 100 µM (inactive), the GI50 (HOP-92) was > 100 µM (inactive) and the GI50 (SNB-75) was > 100 µM (inactive). For the same compound, the GI50 (NCI-H226) was > 100 µM (inactive), the GI50 (NCI-H460) was > 100 µM (inactive) and the GI50 (OVCAR-8) was > 100 µM (inactive). For the same compound, the GI50 (HCT-15) was over 100 µM, the GI50 (OVCAR-5) was > 100 µM (inactive) and the GI50 (A549) was > 100 µM (inactive). The GI50 (ACHN) was > 100 µM (inactive), the GI50 (T47D) was > 100 µM (inactive) and the GI50 (OVCAR-3) was > 100 µM (inactive). The GI50 (SW-620) was > 100 µM (inactive), the GI50 (HCC 2998) was > 100 µM (inactive) and the GI50 (EKVX) was > 100 µM (inactive). The GI50 (KM12) was > 100 µM (inactive), the GI50 (IGROV-1) was > 100 µM (inactive) and the GI50 (RXF 393) was > 100 µM (inactive). The GI50 (COLO 205) was > 100 µM (inactive), the GI50 (MDA-MB-231) was > 100 µM (inactive) and the GI50 (M14) was > 100 µM (inactive). For the same compound, the GI50 (SN12C) was > 100 µM (inactive), the GI50 (SF-295) was > 100 µM (inactive) and the GI50 (DU-145) was > 100 µM (inactive). For the same compound, the GI50 (HT-29) was > 100 µM (inactive), the GI50 (U-251) was > 100 µM (inactive) and the GI50 (UACC-257) was > 100 µM (inactive). The GI50 (UO-31) was > 100 µM (inactive), the GI50 (HCT-116) was > 100 µM (inactive) and the GI50 (SK-MEL-28) was > 100 µM (inactive). The GI50 (LOX IMVI) was > 100 µM (inactive), the GI50 (HL-60) was > 100 µM (inactive) and the GI50 (A498) was > 100 µM (inactive). For the same compound, the GI50 (SK-MEL-5) was > 100 µM (inactive) and the GI50 (SF-268) was > 100 µM (inactive).
